Laboratory results: patent publication EP1304101A1, “Composition and method for use of pyridinium derivatives in cosmetic and therapeutic applications” (Torrent Pharmaceuticals Ltd, priority 2001, dated 2003)

Legend:
AGE-BSA = target: T1, AGE-BSA (Bos taurus, UniProt P02769); assay: In-vitro AGE breaking activity by ELISA (16 weeks AGE-BSA incubated with test compound); format: biochemical, bovine; conditions: for % Breakage: 37°C, 24 hours; for AGE breaking activity compared to PTB: comparison in words based on Table 2
T1 construct: Bovine serum albumin (fraction V) (BSA); from tissue
Procedure: AGE breaking activity has been confirmed by the screening procedure as mentioned below: • Materials: • Bovine serum albumin (fraction V) (BSA) • Glucose, analytical grade • Phosphate buffered saline (PBS) • Equipment: • Microplate ELISA Reader - Spectramax Plus (Molecular Devices, USA) • Microplate washer, (Bio -Tec Instruments, USA) • pH meter • Methods of experiment: Elisa (Enzyme Linked Immunosorbent Assay) 160 mg/ml of protein, bovine serum albumin, BSA and 1.6M glucose sugar were dissolved in phosphate buffered saline, PBS. Sodium azide was added at 0.02% concentration as a preservative. The solution was filtered asceptically through a 0.22 µM filter and kept for aging at 37°C for 16 weeks. After 16 weeks the solution was dialyzed against PBS, aliquoted and stored at - 20°C.
To determine the AGE breaking activity, 10 µg/ml of the 16 weeks AGE-BSA was incubated with different concentrations of the test compounds at 37°C for 24 hours and AGE breaking activity of the test compounds by ELISA was determined.
Different concentrations of 16 weeks AGE-BSA were coated on a microtitre plate as standard. Each concentration is coated in triplicates. • 2. The test samples were coated on microtitre plate at a concentration of 5 ng. to 20 ng per well in triplicates. • 3. The plate was incubated at 37°C for one hour. • 4. After incubation the plate was washed with PBST (PBS with 0.05% Tween 20). • 5. Blocking with 5% skimmed milk in PBS at 37°C for one hour was done. • 6. The plate was washed with PBST. • 7. Primary antibody against AGE-BSA was added and the plate is incubated at 37°C for one hour. • 8. The plate was washed with PBST • 9. Secondary antibody anti rabbit HRPO (Horse-Radish Per Oxidase) conjugate was added and the plate is incubated at 37°C for one hour. • 10. The plate was washed with PBST. • 11. Colour development with OPD (orthophenylenediamine dihydrochloride) and hydrogen peroxide was done. • 12. OD (optical density) at (450nm reading - 620nm reading) was measured after incubation at 37°C for 15 minutes with Microplate ELISA Reader.
The breaker activity of the compounds were determined by the following formula: % Breaker activity =(OD450-620 Control - OD450-620 Test)/(OD450-620 Control)x 100 [formula] OD450-620Control= Absorbance of 20ng AGE-BSA after incubation at 37°C for 24 hours without test compound OD450-620Test= Absorbance of 20ng AGE-BSA after incubation at 37°C for 24 hours with required concentration of test compound

[1] = Free radical scavenging activity on ABTS radical cation (absorbance at 730nm); format: biochemical
Procedure: This method measures the relative ability of free radical scavenging substances to scavenge the ABTS ^.+ i.e. 2,2-Azino-bis-(3-ethyl benzo thiazoline-6-sulfonate) radical cation as compared to a standard amount of standard or free radical scavengers antioxidants. Incubation of ABTS with Peroxidase (metmyoglobin) and hydrogen peroxide results in the production of radical cation ABTS^.+ . This species is blue- green in colour and can be detected at 730nm. Antioxidants or free radical scavengers in the added sample that causes suppression of the color to a degree that is proportional to their concentration.
• A. Phosphate Citrate Buffer (pH 5.0): 48.5ml of 0.1M citric acid with sufficient 0.2M disodium hydrogen phosphate to produce 100 ml. • B. Phosphate Buffer Saline (PBS): Dissolve 40.0g of NaCl, 1.0g of KCI, 1.0g of KH2PO4 and 3.05g of Na2HPO4 in 1 litre milli-Q water. Dilute 200ml of above solution to 1 litre with milli-Q water (pH 7.4-7.6). • C. 3µM stock solution of Peroxidase was prepared in phosphate buffer saline pH 7.4(PBS). • D. 1.08 mM stock solution of Hydrogen peroxide was prepared in phosphate buffer saline pH 7.4 (PBS).
1 tablet (10mg) was dissolved in phosphate citrate buffer (pH 5.0).
5.0ml of ABTS stock solution was diluted with PBS to 20 ml.
320 µg of the enzyme was dissolved in 2.5 ml of PBS.
12µl of Hydrogen Peroxide (30%w/v) was diluted to 100ml with PBS.
0.1mM of stock solution of the drug was prepared which was serially diluted in PBS to get solutions of different concentrations.
To 18ml of ABTS stock solution, 100µl of Horseradish Peroxidase stock solution was added.
As soon as 1.5 ml of hydrogen peroxide solution was added to the above solution, blue-green colour of the ABTS radicals appeared. This solution was incubated at 30°C for 30 min.
980µl of ABTS radical stock solution was added to an eppendorf tube. To it was added 100µl of various PBS solution.
980µl of ABTS radical stock solutions were added to different eppendorf tubes. To it were added 100µl of various concentrations of drug solution.
The absorbance of control and test samples was recorded immediately at 730nm taking PBS as blank.
Calculation: The percent antioxidant activity was calculated according to the formula: % Antioxidant activity = [O.D of test sample/O.D of control*100]-100.

T1 sequence (P02769 25-607): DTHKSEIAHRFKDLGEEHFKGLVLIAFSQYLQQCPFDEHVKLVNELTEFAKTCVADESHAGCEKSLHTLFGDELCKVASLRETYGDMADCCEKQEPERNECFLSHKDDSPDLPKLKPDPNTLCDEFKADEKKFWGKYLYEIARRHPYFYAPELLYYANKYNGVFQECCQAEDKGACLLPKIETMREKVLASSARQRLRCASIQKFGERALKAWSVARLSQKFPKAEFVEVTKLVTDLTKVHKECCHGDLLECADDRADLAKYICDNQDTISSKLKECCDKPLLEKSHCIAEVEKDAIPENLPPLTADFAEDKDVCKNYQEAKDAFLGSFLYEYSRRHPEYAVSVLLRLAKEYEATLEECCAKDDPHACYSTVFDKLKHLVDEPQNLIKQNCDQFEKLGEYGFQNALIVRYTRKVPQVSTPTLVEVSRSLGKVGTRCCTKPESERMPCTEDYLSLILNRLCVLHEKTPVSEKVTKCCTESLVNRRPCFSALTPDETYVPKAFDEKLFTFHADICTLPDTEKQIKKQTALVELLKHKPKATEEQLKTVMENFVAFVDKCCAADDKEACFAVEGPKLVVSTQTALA

Row | SMILES | % Breakage (AGE-BSA; 10 mM test compound) [%] | Relative Free Radical Scavenging Activity(%) on ABTS ([1]; 11.5µM) [%] | Relative Free Radical Scavenging Activity(%) on ABTS ([1]; 23.0µM) [%] | Relative Free Radical Scavenging Activity(%) on ABTS ([1]; 46.0µM) [%] | Relative Free Radical Scavenging Activity(%) on ABTS ([1]; 92.5µM) [%] | Relative Free Radical Scavenging Activity(%) on ABTS ([1]; 925µM) [%] | other results
1 | CCOC(=O)C1CCCN1C(=O)C[n+]1cccc(C(=O)NNC(=O)c2ccc[n+](CC(=O)N3CCCC3C(=O)OCC)c2)c1 (centres unmarked) [Compound 59, N, N'-bis [3-carbonyl-1-(2-(2-ethoxycarbonyl pyrrolidin-1-yl)-2-oxoethyl)pyridinium] hydrazine dichloride] | 20.31 |  |  |  |  |  | 
2 | O=C(C[n+]1cccc(C(=O)NNC(=O)c2ccc[n+](CC(=O)c3ccccc3)c2)c1)c1ccccc1 [Compound 1, N, N'-bis [3-carbonyl-1-(2-phenyl-2-oxoethyl)-pyridinium] hydrazine dibromide] |  |  |  |  |  |  | % Breakage (AGE-BSA; 5 mM test compound): 13%
3 | CCOC(=O)C1CCCN1C(=O)C[n+]1cccc(C(=O)NNS(C)(=O)=O)c1.[Cl-] (centres unmarked) [Compound 52, 1-(2-(2-ethoxycarbonylpyrrolidin-1-yl)-2-oxoethyl)-3-(methanesulfonyl hydrazinocarbonyl) pyridinium chloride] | 25.34 |  |  |  |  |  | 
4 | O=C(C[n+]1cccc(C(=O)NCCO)c1)Nc1ccccc1.[Cl-] [Compound 95, 1-(2- Phenylamino - 2-oxoethyl)-3-((2-hydroxyethyl)aminocarbonyl) - pyridinium chloride] |  |  |  |  |  |  | % Breakage (AGE-BSA; 20 mM test compound): 48%
5 | O=C(NNC(=O)c1ccc[n+](CC(=O)c2ccco2)c1)c1ccc[n+](CC(=O)c2ccco2)c1 [Compound 32, N, N' - bis [3-carbonyl-1-(2-furan-2'-yl-2-oxoethyl)pyridinium] hydrazine dibromide] | 14 |  |  |  |  |  | 
6 | O=C(C[n+]1cccc(C(=O)NNS(=O)(=O)Cc2ccccc2)c1)c1ccccc1.[Br-] [Compound 31, 1-(2-phenyl-2-oxoethyl)-3-((phenylmethyl)sulfonyl hydrazinocarbonyl) pyridinium bromide] |  | 41.6 | 57.7 | 66.9 | 99.2 | 100 | 
7 | COCCNC(=O)c1cc(Br)c[n+](CC(=O)c2cccs2)c1 [Compound 47, 1-(2-thien-2'-yl-2-oxoethyl)-3-((2-methoxyethyl)aminocarbonyl)-5-bromo pyridinium chloride] | 32.38 |  |  |  |  |  | AGE breaking activity compared to PTB (AGE-BSA): superior
8 | Cc1ccc(C(=O)NNS(C)(=O)=O)c[n+]1CC(=O)c1cccs1 [Compound 57, 1-(2-thien-2'-yl-2-oxoethyl)-3-(methanesulfonyl hydrazinocarbonyl) -6-methyl pyridinium bromide] |  |  |  |  |  |  | % Breakage (AGE-BSA; 1 mM test compound): 77.69%
9 | CCCCNC(=O)c1ccc[n+](CC(=O)c2ccc(Cl)cc2Cl)c1.[Br-] [Compound 97, 1-(2 - (2, 4 - Dichlorophenyl) - 2-oxoethyl) - 3-(n-butylamino-carbonyl) pyridinium bromide] |  | 16.5 | 27 | 37.8 | 44.5 | 97.8 | 
10 | NC(=O)c1cccnc1 [Niacinamide, reference compound] |  | 0.0 | 2.2 | 3.8 | 3.8 | 9.2 | 
11 | O=C(C[n+]1ccsc1)c1ccccc1 [PTB, reference compound] | 27 |  |  |  |  |  | % Breakage (AGE-BSA; 20 mM test compound): 47%
12 | CCOC(=O)C[n+]1cccc(C(=O)OCCOC(=O)c2ccccc2)c1.[Br-] [Compound 17, 1-(2-ethoxy-2-oxoethyl) -3-(2-(benzoyloxy)ethyloxycarbonyl) pyridinium bromide] | 19 |  |  |  |  |  | 
13 | O=C(C[n+]1cccc(C(=O)NCCOC(=O)c2ccccc2)c1)Nc1ccccc1.[Cl-] [Compound 23, 1-(2-phenylamino-2-oxoethyl)-3-((benzoyloxy)ethylaminocarbonyl) pyridinium chloride] | 37 |  |  |  |  |  | % Breakage (AGE-BSA; 25 mM test compound): 90%; AGE breaking activity compared to PTB (AGE-BSA): superior
14 | CCOC(=O)C1CSCN1C(=O)C[n+]1cccc(C(=O)NNS(C)(=O)=O)c1.[Cl-] (centres unmarked) [Compound 61, 1-(2-(4-carboethoxy-thiazolidin-3-yl)-2-oxoethyl) -3-(methanesulfonyl hydrazinocarbonyl) pyridinium chloride] | 25.06 |  |  |  |  |  | 
15 | O=C(NCCOC(=O)c1ccccc1)c1ccc[n+](CC(=O)c2ccc(Cl)cc2Cl)c1.[Br-] [Compound 8, 1-(2-(2',4'-dichlorophenyl) -2-oxoethyl) -3-(2-(benzoyloxy)ethylamino-carbonyl) pyridinium bromide] |  | 40.8 | 53.7 | 72.6 | 81.2 | 100 | 
16 | O=C=Nc1ccc[n+](CC(=O)c2ccc(Cl)cc2Cl)c1.[Br-] [Compound 82, 3-Carbonylamino-1-(2-(2,4-dichlorophenyl)-2-oxoethyl)-pyridinium bromide] |  | 26.0 | 44.3 | 62.7 | 75.5 | 100 | 
17 | NC(=O)c1ccc[n+](CC(=O)c2cccs2)c1 [Compound 85, 3-Carbonylamino-1-(2-thien-2'-yl-2-oxoethyl)-pyridinium bromide] | 3 |  |  |  |  |  | 
18 | O=C1CCCC(CCNNC(=O)c2ccc[n+](CC(=O)Nc3ccccc3)c2)C1.[Br-] (centres unmarked) [Compound 35, 1-(2-phenylamino-2-oxoethyl)-3-({2-(1-oxo-3-cyclohexyl)-ethyl} -hydrazinocarbonyl}-pyridinium bromide] |  | 50.5 | 63.4 | 80.9 | 90.6 | 100 | 
19 | O=C(NCCOC(=O)c1ccccc1)c1cc[n+](CC(=O)c2cccs2)cc1.[Br-] [Compound 18, 1-(2-thien-2'-yl-2-oxoethyl)-4-(2-(benzoyloxy)ethylaminocarbonyl) pyridinium bromide] |  | 41.8 | 59.5 | 75.2 | 91.0 | 100 | 
20 | O=C(CCC1CCCCC1)NNC(=O)c1ccc[n+](CC(=O)c2cccs2)c1.[Br-] [Compound 34, 1-(2-thien-2'-yl-2-oxoethyl)-3-((2-(1-oxo-3-cyclohexyl)-ethyl)-hydrazinocarbonyl)-pyridinium bromide] |  | 50.3 | 53.8 | 65.4 | 80.4 | 100 | 
21 | O=C(NCCOC(=O)c1ccccc1)c1ccc[n+](CC(=O)c2cccs2)c1.[Br-] [Compound 36, 1-(2-thien-2'-yl-2-oxoethyl)-3-[2-(benzoyloxy)ethylaminocarbonyl]-pyridinium bromide] |  | 27.6 | 59.2 | 74.2 | 83.9 | 100 | 
22 | O=C(C[n+]1cccc(C(=O)c2ccccc2)c1)c1ccccc1.[Br-] [Compound 98, 1-(2-Phenyl-2-oxoethyl)-3-(1-phenyl-1-oxomethyl) pyridinium bromide] |  | 7.1 | 26.9 | 51.1 | 78.6 | 99.1 | 
23 | Cc1ccc(S(=O)(=O)NNC(=O)c2ccc[n+](CC(=O)Nc3ccccc3)c2)cc1.[Cl-] [Compound 27, 1-(2-phenylamino-2-oxoethyl)-3-((4-methylphenyl)sulfonyl hydrazinocarbonyl) pyridinium chloride] |  | 43.9 | 55.5 | 75.3 | 99.6 | 100 | 
